Experimental data published in US20240246913A1, “2-CARBOXYL-INDOLE INHIBITORS OF METALLO-BETA-LACTAMASES” (Oxford University Innovation Limited, priority 2021, published 2024).

Tests used:
VIM-2 = VIM-2 (Escherichia coli, UniProt Q5U7L7); test: MBL inhibition, FC-5 fluorescence assay, VIM-2; assay type: biochemical; settings: FC-5 cephalosporin substrate, ranges of obtained pIC50, read-out: pIC50 VIM-2 (converted)
In short: (§1)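 FC-5 turnover; fluorescence ex 380 nm/em 460 nm; initial rates; normalized dose-response, variable-slope fit; 4 replicates per concentration point.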

NDM-1 = NDM-1 (Klebsiella pneumoniae, UniProt C7C422); test: MBL inhibition, FC-5 fluorescence assay, NDM-1; assay type: biochemical; settings: FC-5 cephalosporin substrate, fluorescence; ranges of obtained pIC50; read-out: pIC50 NDM-1 (converted)
In short: as §1

IMP-1 = IMP-1 (Serratia marcescens, UniProt P52699); test: MBL inhibition, FC-5 fluorescence assay, IMP-1; assay type: biochemical; settings: FC-5 cephalosporin substrate, fluorescence; ranges of obtained pIC50; read-out: pIC50 IMP-1 (converted)
In short: as §1

VIM-1 = VIM-1 (Pseudomonas aeruginosa, UniProt A0A0F7KYQ8); test: MBL inhibition, FC-5 fluorescence assay, VIM-1; assay type: biochemical; settings: FC-5 cephalosporin substrate, ranges of obtained pIC50, read-out: pIC50 VIM-1 (converted)
In short: as §1

[1] = system: Acinetobacter baumannii NDM-1; test: Antibiotic susceptibility testing (MIC), AB NDM-1; assay type: cell-based; settings: agar or broth dilution (CLSI/EUCAST)
Method: (§2) Antibiotic susceptibility testing was performed using the agar or broth dilution method, in line with the Clinical and Laboratory Standards Institute (CLSI) and European Committee on Antimicrobial Susceptibility Testing (EUCAST) requirements.

Escherichia coli NDM-7 = test: Antibiotic susceptibility testing (MIC), EC NDM-7; assay type: cell-based; settings: agar or broth dilution (CLSI/EUCAST)
Method: as §2

Escherichia coli NDM-1 = test: Antibiotic susceptibility testing (MIC), EC NDM-1; assay type: cell-based; settings: agar or broth dilution (CLSI/EUCAST)
Method: as §2

[2] = Metabolic stability in human hepatocytes; assay type: in vitro ADME; settings: cryopreserved human hepatocytes, 1 μM compound, 37° C., up to 90 min, read-out: Metabolic stability in hepatocytes, in vitro t1/2, Human
Method: (§3) Metabolic stability assays were performed in cryopreserved human and mouse hepatocytes. The hepatocytes were thawed and added to “Thawing media”, and centrifuged to pellet the hepatocytes. The cell pellet was taken up in Williams medium E (Invitrogen A1217601), the number of cells was calculated and adjusted to 1.0×10^6 cells/mi. The incubation was carried out on a heater-shaker at […], in a 24-well Picoplate (round bottom, PerkinElmer), using an incubation volume of […]. Thus, to obtain a final compound concentration of 1 μM, 0.7 μl of the 1 mM compound stock solution was pipetted to the wells of the plate. Reaction was initiated by adding 700 μl of cell suspension. Samples were incubated at 37° C. for […] and a zero sample was taken, i.e. 100 μl sample was removed to a 96-well plate and the reaction was quenched by adding 100 μl of 100% MeCN containing 50 nM Warfarin as an internal control. Consecutive samples were taken at time-points 5 min, 15 min, 30 min, 60 min, and 90 min. After finishing the experiment, samples were centrifuged at 3000 rpm for 15 min and before analysis by LC-MS/MS (Waters Corp, Milford, MA, USA).

[3] = Metabolic stability in mouse hepatocytes; assay type: in vitro ADME; settings: cryopreserved mouse hepatocytes, 1 μM compound, 37° C., up to 90 min, read-out: Metabolic stability in hepatocytes, in vitro t1/2, Mouse
Method: as §3

[4] = Plasma protein binding, equilibrium dialysis, human plasma; assay type: in vitro ADME; settings: pH 7.4, equilibrium dialysis (RED) 4 hours at 37° C., read-out: Plasma protein binding, fu, Human
In short: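 Compound at 10 μM in plasma dialysed against 67 mM phosphate buffer pH 7.4 for 4 h at 37° C. in RED device; unbound fraction from buffer and plasma levels by LC-MS/MS. Plasma stability checked in parallel over 4 h at 37° C. versus frozen control.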

[5] = Plasma protein binding, equilibrium dialysis, mouse plasma; assay type: in vitro ADME; settings: pH 7.4, equilibrium dialysis (RED) 4 hours at 37° C., read-out: Plasma protein binding, fu, Mouse
Method: The fraction of unbound compound (fu) in plasma from human or other animal species was determined by equilibrium dialysis at 37° C. for 4 hours using the Rapid Equilibrium Dialysis (RED) device (ThermoFisher Scientific). The test compound at a concentration of 10 μM was added to plasma and dialyzed against isotonic phosphate buffer (67 mM, pH 7.4) over 4 hours at 37° C. After dialysis, compound concentrations in buffer and plasma were quantified by LC-MS/MS. In parallel the stability of the compound in plasma was determined by incubating drug-spiked plasma (10 μM) at 37° C. for 4 hours, meanwhile the control plasma sample was kept in the freezer. The concentration of the compound in both samples was quantified by LC-MS/MS (Waters Corp, Milford, MA, USA).

NDM-1, sequence (C7C422 29-270, looked up, species assumed): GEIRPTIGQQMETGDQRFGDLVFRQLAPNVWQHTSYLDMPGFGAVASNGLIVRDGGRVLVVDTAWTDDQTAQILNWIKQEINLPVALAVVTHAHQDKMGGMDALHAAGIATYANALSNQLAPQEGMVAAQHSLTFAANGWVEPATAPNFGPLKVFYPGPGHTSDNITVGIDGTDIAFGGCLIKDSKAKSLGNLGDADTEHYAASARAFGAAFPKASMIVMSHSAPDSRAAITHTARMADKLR
IMP-1, sequence (P52699 19-246, looked up, species assumed): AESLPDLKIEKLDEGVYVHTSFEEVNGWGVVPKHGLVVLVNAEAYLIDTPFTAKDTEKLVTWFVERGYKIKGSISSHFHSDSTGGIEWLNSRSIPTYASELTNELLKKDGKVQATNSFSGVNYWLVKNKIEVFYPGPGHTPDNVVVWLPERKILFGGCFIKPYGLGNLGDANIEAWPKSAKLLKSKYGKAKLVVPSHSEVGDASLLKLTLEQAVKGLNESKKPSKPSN

Row | Compound | IC50 (VIM-2) [nM] | IC50 (NDM-1) [nM] | IC50 (IMP-1) [nM] | IC50 (VIM-1) [nM] | MIC values AB NDM-1 [1] | MIC values EC NDM-7 (Escherichia coli NDM-7) | MIC values EC NDM-1 (Escherichia coli NDM-1) | half-life at 1 μM [2] [h] | half-life at 1 μM [3] [h] | fraction unbound at 4 h, 10 μM [4] | fraction unbound at 4 h, 10 μM [5]
1 | CC(c1noc(CCCN)n1)c1cccc2c(-c3ccc(CS(C)(=O)=O)c(F)c3)c(C(=O)O)[nH]c12 (stereo not drawn) [IC-62, 7-[1-[5-(3-Aminopropyl)-1,2,4-oxadiazol-3-yl]ethyl]-3-[3-fluoro-4-(methylsulfonylmethyl)phenyl]-1H-indole-2-carboxylic acid] | 0.1 to 1 | < 0.1 | 1 to 10 | 0.1 to 1 | A (A = MIC values ≤ 1) | A (A = MIC values ≤ 1) | A (A = MIC values ≤ 1) | > 6.67 | 2.5 to 6.67 | 0.05 to 0.25 | 0.005 to 0.05
2 | C[C@@H](c1cccc2c(-c3ccc(CS(C)(=O)=O)c(F)c3)c(C(=O)O)[nH]c12)N1CC2(CN(C(=N)N)C2)OC1=O [IC-66, (S)-7-(1-(2-carbamimidoyl-6-oxo-5-oxa-2,7-diazaspiro[3.4]octan-7-yl)ethyl)-3-(3-fluoro-4-((methylsulfonyl)methyl)phenyl)-1H-indole-2-carboxylic acid] | 0.1 to 1 | 0.1 to 1 | > 10 | 0.1 to 1 | B (B MIC values 2 ÷ 8) | A (A = MIC values ≤ 1) | A (A = MIC values ≤ 1) | 2.5 to 6.67 | > 6.67 | > 0.25 | 0.005 to 0.05
3 | C[C@@H](c1cccc2c(-c3ccc(CS(C)(=O)=O)c(F)c3)c(C(=O)O)[nH]c12)n1cc(CN2CC(N)C2)oc1=O [IC-67, (S)-7-(1-(5-((3-aminoazetidin-1-yl)methyl)-2-oxooxazol-3(2H)-yl)ethyl)-3-(3-fluoro-4-((methylsulfonyl)methyl)phenyl)-1H-indole-2-carboxylic acid] | 0.1 to 1 | < 0.1 | > 10 | 1 to 10 | B (B MIC values 2 ÷ 8) | A (A = MIC values ≤ 1) | A (A = MIC values ≤ 1) | > 6.67 | > 6.67 | 0.05 to 0.25 | 0.005 to 0.05
4 | C[C@@H](c1cccc2c(-c3ccc(CS(C)(=O)=O)c(F)c3)c(C(=O)O)[nH]c12)n1cc(CCC2(N)CC2)oc1=O [IC-69, (S)-7-(1-(5-(2-(1-Aminocyclopropyl)ethyl)-2-oxooxazol-3(2H)-yl)ethyl)-3-(3-fluoro-4-((methylsulfonyl)methyl)phenyl)-1H-indole-2-carboxylic acid] | 0.1 to 1 | < 0.1 | > 10 | 0.1 to 1 | B (B MIC values 2 ÷ 8) | A (A = MIC values ≤ 1) | A (A = MIC values ≤ 1) | > 6.67 | < 2.5 | 0.05 to 0.25 | 0.005 to 0.05
5 | C[C@@H](c1cccc2c(-c3ccc(CS(C)(=O)=O)c(F)c3)c(C(=O)O)[nH]c12)n1cc(CCCN)oc1=O [IC-70, (S)-7-(1-(5-(3-aminopropyl)-2-oxooxazol-3(2H)-yl)ethyl)-3-(3-fluoro-4-((methylsulfonyl)methyl)phenyl)-1H-indole-2-carboxylic acid] | 0.1 to 1 | < 0.1 | > 10 | 0.1 to 1 | A (A = MIC values ≤ 1) | A (A = MIC values ≤ 1) | A (A = MIC values ≤ 1) | > 6.67 | 2.5 to 6.67 | 0.05 to 0.25 | 0.005 to 0.05
6 | C[C@@H](c1cccc2c(-c3ccc(CS(C)(=O)=O)c(F)c3)c(C(=O)O)[nH]c12)N1CC2(CCC(N)CC2)OC1=O (stereo partly drawn) [IC-71, (S)-7-(1-(8-amino-2-oxo-1-oxa-3-azaspiro[4.5]decan-3-yl)ethyl)-3-(3-fluoro-4-((methylsulfonyl)methyl)phenyl)-1H-indole-2-carboxylic acid] | 1 to 10 | 1 to 10 | > 10 | > 10 | C (C = MIC values > 8) | A (A = MIC values ≤ 1) | B (B MIC values 2 ÷ 8) | > 6.67 | 2.5 to 6.67 | > 0.25 | > 0.25
7 | CC(c1cccc2c(-c3ccc(CS(C)(=O)=O)c(F)c3)c(C(=O)O)[nH]c12)n1cc(CCC2(N)CC2)oc1=O (stereo not drawn) [IC-74, 7-(1-(5-(2-(1-aminocyclopropyl)ethyl)-2-oxooxazol-3(2H)-yl)ethyl)-3-(3-fluoro-4-((methylsulfonyl)methyl)phenyl)-1H-indole-2-carboxylic acid] | 0.1 to 1 | < 0.1 | > 10 | 0.1 to 1 | B (B MIC values 2 ÷ 8) | A (A = MIC values ≤ 1) | A (A = MIC values ≤ 1) | > 6.67 | < 2.5 | 0.05 to 0.25 | 0.05 to 0.25
8 | CC(c1cccc2c(-c3ccc(CS(C)(=O)=O)c(F)c3)c(C(=O)O)[nH]c12)n1cc(CN)oc1=O (stereo not drawn) [IC-79, 7-(1-(5-(Aminomethyl)-2-oxooxazol-3(2H)-yl)ethyl)-3-(3-fluoro-4-((methylsulfonyl)methyl)phenyl)-1H-indole-2-carboxylic acid] | 1 to 10 | 0.1 to 1 | > 10 | 1 to 10 | A (A = MIC values ≤ 1) | A (A = MIC values ≤ 1) | A (A = MIC values ≤ 1) | > 6.67 | < 2.5 | > 0.25 | 0.05 to 0.25
9 | CC(c1cccc2c(-c3ccc(CS(C)(=O)=O)c(F)c3)c(C(=O)O)[nH]c12)n1cc(CNC(=O)CN)oc1=O (stereo not drawn) [IC-80, 7-(1-(5-((2-Aminoacetamido)methyl)-2-oxooxazol-3(2H)-yl)ethyl)-3-(3-fluoro-4-((methylsulfonyl)methyl)phenyl)-1H-indole-2-carboxylic acid] | 1 to 10 | 0.1 to 1 | > 10 | 1 to 10 | B (B MIC values 2 ÷ 8) | A (A = MIC values ≤ 1) | A (A = MIC values ≤ 1) | > 6.67 | < 2.5 | > 0.25 | 0.05 to 0.25
